Laboratory results as given in patent publication US20150296790A1, “SILICON-CONTAINING COMPOUND AQUEOUS SOLUTION AND ANTIBACTERIAL/ANTIVIRAL AGENT INCLUDING SAID SOLUTION” (JEX CO., LTD., priority 2012, published 2015).

Experiment: Stability over time (three-month storage tests, visual)
Type: physicochemical
Details: purified water

CCCCCCCCCCCCCCCCCC[N+](C)(C)CCC[Si](OCC)(OCC)OCC.[Cl-] [Compound E, Octadecyl dimethyl(3-triethoxysilylpropyl)ammonium chloride]
Change Over 3 Months (Accelerated Test at 40° C., Cold Test at 5° C., Ambient Test at 25° C.) (DEXYPEARL 1 w/w %, Compound E 0.1 w/w %): Not clear but stable
Change Over 3 Months (Accelerated Test at 40° C., Cold Test at 5° C., Ambient Test at 25° C.) (DEXYPEARL 2 w/w %, Compound E 0.1 w/w %): Not clear but stable
Change Over 3 Months (Accelerated Test at 40° C., Cold Test at 5° C., Ambient Test at 25° C.) (DEXYPEARL 3 w/w %, Compound E 0.1 w/w %): Not clear but stable
Change Over 3 Months (Accelerated Test at 40° C., Cold Test at 5° C., Ambient Test at 25° C.) (DEXYPEARL 4 w/w %, Compound E 0.1 w/w %): Not clear but stable
Change Over 3 Months (Accelerated Test at 40° C., Cold Test at 5° C., Ambient Test at 25° C.) (DEXYPEARL 5 w/w %, Compound E 0.1 w/w %): Not clear but stable
Change Over 3 Months (Accelerated Test at 40° C., Cold Test at 5° C., Ambient Test at 25° C.) (DEXYPEARL 6 w/w %, Compound E 0.1 w/w %): Not clear but stable
Change Over 3 Months (Accelerated Test at 40° C., Cold Test at 5° C., Ambient Test at 25° C.) (DEXYPEARL 7 w/w %, Compound E 0.1 w/w %): Not clear but stable
Change Over 3 Months (Accelerated Test at 40° C., Cold Test at 5° C., Ambient Test at 25° C.) (DEXYPEARL 8 w/w %, Compound E 0.1 w/w %): Not clear but stable
Change Over 3 Months (Accelerated Test at 40° C., Cold Test at 5° C., Ambient Test at 25° C.) (DEXYPEARL 9 w/w %, Compound E 0.1 w/w %): Not clear but stable
Change Over 3 Months (Accelerated Test at 40° C., Cold Test at 5° C., Ambient Test at 25° C.) (DEXYPEARL 10 w/w %, Compound E 0.1 w/w %): Not clear but stable
Change Over 3 Months (Accelerated Test at 40° C., Cold Test at 5° C., Ambient Test at 25° C.) (DEXYPEARL 20 w/w %, Compound E 0.1 w/w %): Precipitated
Change Over 3 Months (Accelerated Test at 40° C., Cold Test at 5° C., Ambient Test at 25° C.) (DEXYPEARL 30 w/w %, Compound E 0.1 w/w %): Precipitated
Change Over 3 Months (Accelerated Test at 40° C., Cold Test at 5° C., Ambient Test at 25° C.) (DEXYPEARL 40 w/w %, Compound E 0.1 w/w %): Precipitated
Change Over 3 Months (Accelerated Test at 40° C., Cold Test at 5° C., Ambient Test at 25° C.) (ISOELEAT 1 w/w %, Compound E 0.1 w/w %): Not clear but stable
Change Over 3 Months (Accelerated Test at 40° C., Cold Test at 5° C., Ambient Test at 25° C.) (ISOELEAT 2 w/w %, Compound E 0.1 w/w %): Not clear but stable
Change Over 3 Months (Accelerated Test at 40° C., Cold Test at 5° C., Ambient Test at 25° C.) (ISOELEAT 3 w/w %, Compound E 0.1 w/w %): Not clear but stable
Change Over 3 Months (Accelerated Test at 40° C., Cold Test at 5° C., Ambient Test at 25° C.) (ISOELEAT 4 w/w %, Compound E 0.1 w/w %): Not clear but stable
Change Over 3 Months (Accelerated Test at 40° C., Cold Test at 5° C., Ambient Test at 25° C.) (ISOELEAT 5 w/w %, Compound E 0.1 w/w %): Not clear but stable
Change Over 3 Months (Accelerated Test at 40° C., Cold Test at 5° C., Ambient Test at 25° C.) (ISOELEAT 6 w/w %, Compound E 0.1 w/w %): Not clear but stable
Change Over 3 Months (Accelerated Test at 40° C., Cold Test at 5° C., Ambient Test at 25° C.) (ISOELEAT 7 w/w %, Compound E 0.1 w/w %): Not clear but stable
Change Over 3 Months (Accelerated Test at 40° C., Cold Test at 5° C., Ambient Test at 25° C.) (ISOELEAT 8 w/w %, Compound E 0.1 w/w %): Not clear but stable
Change Over 3 Months (Accelerated Test at 40° C., Cold Test at 5° C., Ambient Test at 25° C.) (ISOELEAT 9 w/w %, Compound E 0.1 w/w %): Not clear but stable
Change Over 3 Months (Accelerated Test at 40° C., Cold Test at 5° C., Ambient Test at 25° C.) (ISOELEAT 10 w/w %, Compound E 0.1 w/w %): Precipitated
Change Over 3 Months (Accelerated Test at 40° C., Cold Test at 5° C., Ambient Test at 25° C.) (ISOELEAT 20 w/w %, Compound E 0.1 w/w %): Precipitated
Change Over 3 Months (Accelerated Test at 40° C., Cold Test at 5° C., Ambient Test at 25° C.) (ISOELEAT 30 w/w %, Compound E 0.1 w/w %): Precipitated
Change Over 3 Months (Accelerated Test at 40° C., Cold Test at 5° C., Ambient Test at 25° C.) (ISOELEAT 40 w/w %, Compound E 0.1 w/w %): Precipitated
Change Over 3 Months (Accelerated Test at 40° C., Cold Test at 5° C., Ambient Test at 25° C.) (ISOELEAT 50 w/w %, Compound E 0.1 w/w %): Precipitated
Change Over 3 Months (Accelerated Test at 40° C., Cold Test at 5° C., Ambient Test at 25° C.) (α-CD 1 w/w %, Compound E 0.1 w/w %): Stable
Change Over 3 Months (Accelerated Test at 40° C., Cold Test at 5° C., Ambient Test at 25° C.) (α-CD 1 w/w %, Compound E 0.2 w/w %): Stable
Change Over 3 Months (Accelerated Test at 40° C., Cold Test at 5° C., Ambient Test at 25° C.) (α-CD 1 w/w %, Compound E 0.3 w/w %): Stable
Change Over 3 Months (Accelerated Test at 40° C., Cold Test at 5° C., Ambient Test at 25° C.) (α-CD 1 w/w %, Compound E 0.4 w/w %): Stable
Change Over 3 Months (Accelerated Test at 40° C., Cold Test at 5° C., Ambient Test at 25° C.) (α-CD 1 w/w %, Compound E 0.5 w/w %): Stable
Change Over 3 Months (Accelerated Test at 40° C., Cold Test at 5° C., Ambient Test at 25° C.) (α-CD 1 w/w %, Compound E 0.6 w/w %): Stable
Change Over 3 Months (Accelerated Test at 40° C., Cold Test at 5° C., Ambient Test at 25° C.) (α-CD 1 w/w %, Compound E 0.7 w/w %): Stable
Change Over 3 Months (Accelerated Test at 40° C., Cold Test at 5° C., Ambient Test at 25° C.) (α-CD 1 w/w %, Compound E 0.8 w/w %): Clear but some precipitation was observed
Change Over 3 Months (Accelerated Test at 40° C., Cold Test at 5° C., Ambient Test at 25° C.) (α-CD 1 w/w %, Compound E 0.9 w/w %): Clear but some precipitation was observed
Change Over 3 Months (Accelerated Test at 40° C., Cold Test at 5° C., Ambient Test at 25° C.) (α-CD 1 w/w %, Compound E 1 w/w %): Clear but some precipitation was observed
Change Over 3 Months (Accelerated Test at 40° C., Cold Test at 5° C., Ambient Test at 25° C.) (α-CD 7 w/w %, Compound E 0.1 w/w %): Stable
Change Over 3 Months (Accelerated Test at 40° C., Cold Test at 5° C., Ambient Test at 25° C.) (α-CD 7 w/w %, Compound E 0.2 w/w %): Stable
Change Over 3 Months (Accelerated Test at 40° C., Cold Test at 5° C., Ambient Test at 25° C.) (α-CD 7 w/w %, Compound E 0.3 w/w %): Stable
Change Over 3 Months (Accelerated Test at 40° C., Cold Test at 5° C., Ambient Test at 25° C.) (α-CD 7 w/w %, Compound E 0.4 w/w %): Stable
Change Over 3 Months (Accelerated Test at 40° C., Cold Test at 5° C., Ambient Test at 25° C.) (α-CD 7 w/w %, Compound E 0.5 w/w %): Stable
Change Over 3 Months (Accelerated Test at 40° C., Cold Test at 5° C., Ambient Test at 25° C.) (α-CD 7 w/w %, Compound E 0.6 w/w %): Stable
Change Over 3 Months (Accelerated Test at 40° C., Cold Test at 5° C., Ambient Test at 25° C.) (α-CD 7 w/w %, Compound E 0.7 w/w %): Stable
Change Over 3 Months (Accelerated Test at 40° C., Cold Test at 5° C., Ambient Test at 25° C.) (α-CD 7 w/w %, Compound E 0.8 w/w %): Stable
Change Over 3 Months (Accelerated Test at 40° C., Cold Test at 5° C., Ambient Test at 25° C.) (α-CD 7 w/w %, Compound E 0.9 w/w %): Stable
Change Over 3 Months (Accelerated Test at 40° C., Cold Test at 5° C., Ambient Test at 25° C.) (α-CD 7 w/w %, Compound E 1 w/w %): Stable
Change Over 3 Months (Accelerated Test at 40° C., Cold Test at 5° C., Ambient Test at 25° C.) (β-CD 1 w/w %, Compound E 0.1 w/w %): Not changed
Change Over 3 Months (Accelerated Test at 40° C., Cold Test at 5° C., Ambient Test at 25° C.) (β-CD 1 w/w %, Compound E 0.2 w/w %): Not changed
Change Over 3 Months (Accelerated Test at 40° C., Cold Test at 5° C., Ambient Test at 25° C.) (β-CD 1 w/w %, Compound E 0.3 w/w %): Not changed
Change Over 3 Months (Accelerated Test at 40° C., Cold Test at 5° C., Ambient Test at 25° C.) (β-CD 1 w/w %, Compound E 0.4 w/w %): Not changed
Change Over 3 Months (Accelerated Test at 40° C., Cold Test at 5° C., Ambient Test at 25° C.) (β-CD 1 w/w %, Compound E 0.5 w/w %): Not changed
Change Over 3 Months (Accelerated Test at 40° C., Cold Test at 5° C., Ambient Test at 25° C.) (β-CD 1 w/w %, Compound E 0.6 w/w %): Not changed
Change Over 3 Months (Accelerated Test at 40° C., Cold Test at 5° C., Ambient Test at 25° C.) (β-CD 1 w/w %, Compound E 0.7 w/w %): Not changed
Change Over 3 Months (Accelerated Test at 40° C., Cold Test at 5° C., Ambient Test at 25° C.) (β-CD 1 w/w %, Compound E 0.8 w/w %): Not changed
Change Over 3 Months (Accelerated Test at 40° C., Cold Test at 5° C., Ambient Test at 25° C.) (β-CD 1 w/w %, Compound E 0.9 w/w %): Not changed
Change Over 3 Months (Accelerated Test at 40° C., Cold Test at 5° C., Ambient Test at 25° C.) (β-CD 1 w/w %, Compound E 1 w/w %): Not changed
Change Over 3 Months (Accelerated Test at 40° C., Cold Test at 5° C., Ambient Test at 25° C.) (γ-CD 10 w/w %, Compound E 0.1 w/w %): Precipitated
Change Over 3 Months (Accelerated Test at 40° C., Cold Test at 5° C., Ambient Test at 25° C.) (γ-CD 10 w/w %, Compound E 0.2 w/w %): Precipitated
Change Over 3 Months (Accelerated Test at 40° C., Cold Test at 5° C., Ambient Test at 25° C.) (γ-CD 10 w/w %, Compound E 0.3 w/w %): Precipitated
Change Over 3 Months (Accelerated Test at 40° C., Cold Test at 5° C., Ambient Test at 25° C.) (γ-CD 10 w/w %, Compound E 0.4 w/w %): Precipitated
Change Over 3 Months (Accelerated Test at 40° C., Cold Test at 5° C., Ambient Test at 25° C.) (γ-CD 10 w/w %, Compound E 0.5 w/w %): Precipitated
Change Over 3 Months (Accelerated Test at 40° C., Cold Test at 5° C., Ambient Test at 25° C.) (γ-CD 10 w/w %, Compound E 0.6 w/w %): Precipitated
Change Over 3 Months (Accelerated Test at 40° C., Cold Test at 5° C., Ambient Test at 25° C.) (γ-CD 10 w/w %, Compound E 0.7 w/w %): Precipitated
Change Over 3 Months (Accelerated Test at 40° C., Cold Test at 5° C., Ambient Test at 25° C.) (γ-CD 10 w/w %, Compound E 0.8 w/w %): Precipitated
Change Over 3 Months (Accelerated Test at 40° C., Cold Test at 5° C., Ambient Test at 25° C.) (γ-CD 10 w/w %, Compound E 0.9 w/w %): Precipitated
Change Over 3 Months (Accelerated Test at 40° C., Cold Test at 5° C., Ambient Test at 25° C.) (γ-CD 10 w/w %, Compound E 1 w/w %): Precipitated
